Patent US9469650B2, “Melampomagnolide B derivatives” (BOARD OF TRUSTEES OF THE UNIVERSITY OF ARKANSAS, priority 2013, dated 2016)

Columns and labels:
MOLT-4 = assay: panel of 60 human tumor cell lines, growth inhibition (Leukemia); settings: MOLT-4
SR = assay: as above
SF-268 = assay: panel of 60 human tumor cell lines, growth inhibition (CNS Cancer); settings: SF-268
SNB-19 = assay: as above; settings: SNB-19
SNB-75 = assay: as above; settings: SNB-75
HCC-2998 = assay: panel of 60 human tumor cell lines, growth inhibition (Colon Cancer); settings: HCC-2998
HCT-116 = assay: as above; settings: HCT-116
SW-620 = assay: as above; settings: SW-620
786-0 = assay: panel of 60 human tumor cell lines, growth inhibition (Renal Cancer); settings: 786-0
A498 = assay: as above; settings: A498
CAKI-1 = assay: as above; settings: CAKI-1
TK-10 = assay: as above; settings: TK-10
UO-31 = assay: as above; settings: UO-31
MCF7 = assay: panel of 60 human tumor cell lines, growth inhibition (Breast Cancer); settings: MCF7
HS 578T = assay: as above
T-47D = assay: as above; settings: T-47D
MDA-MB-468 = assay: as above; settings: MDA-MB-468
IGROV1 = assay: panel of 60 human tumor cell lines, growth inhibition (Ovarian Cancer); settings: IGROVI
NCI/ADR-RES = assay: as above

## C=C1C(=O)O[C@H]2[C@H]1CC/C(COC(=O)NCCN1CCCCC1)=C\CC[C@@]1(C)O[C@@H]21 [JVM 2-13]
MOLT-4
  TGI: 13.3 µM
MOLT-4; Log10 Concentration −4.0
  Percent Growth: −49%
MOLT-4; Log10 Concentration −5.0
  Percent Growth: 7%
MOLT-4; Log10 Concentration −6.0
  Percent Growth: 95%
MOLT-4; Log10 Concentration −7.0
  Percent Growth: 116%
MOLT-4; Log10 Concentration −8.0
  Percent Growth: 100%
SR
  TGI: 15.4 µM
SR; Log10 Concentration −4.0
  Percent Growth: −47%
SR; Log10 Concentration −5.0
  Percent Growth: 11%
SR; Log10 Concentration −6.0
  Percent Growth: 75%
SR; Log10 Concentration −7.0
  Percent Growth: 95%
SR; Log10 Concentration −8.0
  Percent Growth: 118%
SF-268
  GI50: 9.67 µM
  TGI: 24.4 µM
SF-268; Log10 Concentration −4.0
  Percent Growth: −78%
SF-268; Log10 Concentration −5.0
  Percent Growth: 49%
SF-268; Log10 Concentration −6.0
  Percent Growth: 96%
SF-268; Log10 Concentration −7.0
  Percent Growth: 104%
SF-268; Log10 Concentration −8.0
  Percent Growth: 97%
SNB-19
  GI50: 16.8 µM
  TGI: 15.1 µM
SNB-19; Log10 Concentration −4.0
  Percent Growth: −71%
SNB-19; Log10 Concentration −5.0
  Percent Growth: 85%
SNB-19; Log10 Concentration −6.0
  Percent Growth: 96%
SNB-19; Log10 Concentration −7.0
  Percent Growth: 97%
SNB-19; Log10 Concentration −8.0
  Percent Growth: 98%
SNB-75
  GI50: 10.4 µM
  TGI: 2.256−5 M
SNB-75; Log10 Concentration −4.0
  Percent Growth: −96%
SNB-75; Log10 Concentration −5.0
  Percent Growth: 52%
SNB-75; Log10 Concentration −6.0
  Percent Growth: 73%
SNB-75; Log10 Concentration −7.0
  Percent Growth: 75%
SNB-75; Log10 Concentration −8.0
  Percent Growth: 75%
HCC-2998
  GI50: 18.5 µM
  TGI: 36 µM
HCC-2998; Log10 Concentration −4.0
  Percent Growth: −77%
HCC-2998; Log10 Concentration −5.0
  Percent Growth: 96%
HCC-2998; Log10 Concentration −6.0
  Percent Growth: 104%
HCC-2998; Log10 Concentration −7.0
  Percent Growth: 105%
HCC-2998; Log10 Concentration −8.0
  Percent Growth: 99%
HCT-116
  GI50: 2.72 µM
  TGI: 11.4 µM
HCT-116; Log10 Concentration −4.0
  Percent Growth: −92%
HCT-116; Log10 Concentration −5.0
  Percent Growth: 5%
HCT-116; Log10 Concentration −6.0
  Percent Growth: 84%
HCT-116; Log10 Concentration −7.0
  Percent Growth: 96%
HCT-116; Log10 Concentration −8.0
  Percent Growth: 95%
HCT-116; read-out: LC50
  CC50: 37 µM
SW-620
  GI50: 2.72 µM
  TGI: 12.3 µM
SW-620; Log10 Concentration −4.0
  Percent Growth: −74%
SW-620; Log10 Concentration −5.0
  Percent Growth: 7%
SW-620; Log10 Concentration −6.0
  Percent Growth: 83%
SW-620; Log10 Concentration −7.0
  Percent Growth: 96%
SW-620; Log10 Concentration −8.0
  Percent Growth: 100%
786-0
  GI50: 3.95 µM
  TGI: 17.3 µM
786-0; Log10 Concentration −4.0
  Percent Growth: −74%
786-0; Log10 Concentration −5.0
  Percent Growth: 23%
786-0; Log10 Concentration −6.0
  Percent Growth: 90%
786-0; Log10 Concentration −7.0
  Percent Growth: 89%
786-0; Log10 Concentration −8.0
  Percent Growth: 86%
A498
  GI50: 11.8 µM
  TGI: 25 µM
A498; Log10 Concentration −4.0
  Percent Growth: −92%
A498; Log10 Concentration −5.0
  Percent Growth: 61%
A498; Log10 Concentration −6.0
  Percent Growth: 71%
A498; Log10 Concentration −7.0
  Percent Growth: 65%
A498; Log10 Concentration −8.0
  Percent Growth: 73%
CAKI-1
  GI50: 3.43 µM
  TGI: 15.7 µM
CAKI-1; Log10 Concentration −4.0
  Percent Growth: −98%
CAKI-1; Log10 Concentration −5.0
  Percent Growth: 24%
CAKI-1; Log10 Concentration −6.0
  Percent Growth: 80%
CAKI-1; Log10 Concentration −7.0
  Percent Growth: 92%
CAKI-1; Log10 Concentration −8.0
  Percent Growth: 89%
TK-10
  GI50: 2.88 µM
  TGI: 11.1 µM
TK-10; Log10 Concentration −4.0
  Percent Growth: −94%
TK-10; Log10 Concentration −5.0
  Percent Growth: 5%
TK-10; Log10 Concentration −6.0
  Percent Growth: 89%
TK-10; Log10 Concentration −7.0
  Percent Growth: 103%
TK-10; Log10 Concentration −8.0
  Percent Growth: 105%
UO-31
  GI50: 3.34 µM
  TGI: 16.1 µM
UO-31; Log10 Concentration −4.0
  Percent Growth: −81%
UO-31; Log10 Concentration −5.0
  Percent Growth: 21%
UO-31; Log10 Concentration −6.0
  Percent Growth: 82%
UO-31; Log10 Concentration −7.0
  Percent Growth: 91%
UO-31; Log10 Concentration −8.0
  Percent Growth: 91%
MCF7
  GI50: 2.58 µM
  TGI: 11.4 µM
MCF7; Log10 Concentration −4.0
  Percent Growth: −64%
MCF7; Log10 Concentration −5.0
  Percent Growth: 4%
MCF7; Log10 Concentration −6.0
  Percent Growth: 82%
MCF7; Log10 Concentration −7.0
  Percent Growth: 91%
MCF7; Log10 Concentration −8.0
  Percent Growth: 87%
HS 578T
  GI50: 18.4 µM
HS 578T; HS 57BT
  TGI: 66 µM
HS 578T; HS 57BT, Log10 Concentration −4.0
  Percent Growth: −16%
HS 578T; HS 57BT, Log10 Concentration −5.0
  Percent Growth: 74%
HS 578T; HS 57BT, Log10 Concentration −6.0
  Percent Growth: 89%
HS 578T; HS 57BT, Log10 Concentration −7.0
  Percent Growth: 87%
HS 578T; HS 57BT, Log10 Concentration −8.0
  Percent Growth: 92%
T-47D
  GI50: 2.38 µM
  TGI: 12.6 µM
T-47D; Log10 Concentration −4.0
  Percent Growth: −65%
T-47D; Log10 Concentration −5.0
  Percent Growth: 7%
T-47D; Log10 Concentration −6.0
  Percent Growth: 76%
T-47D; Log10 Concentration −7.0
  Percent Growth: 88%
T-47D; Log10 Concentration −8.0
  Percent Growth: 82%
MDA-MB-468
  GI50: 1.41 µM
  TGI: 4.47 µM
MDA-MB-468; Log10 Concentration −4.0
  Percent Growth: −68%
MDA-MB-468; Log10 Concentration −5.0
  Percent Growth: −35%
MDA-MB-468; Log10 Concentration −6.0
  Percent Growth: 65%
MDA-MB-468; Log10 Concentration −7.0
  Percent Growth: 95%
MDA-MB-468; Log10 Concentration −8.0
  Percent Growth: 99%
IGROV1
  GI50: 5.59 µM
  TGI: 22.9 µM
IGROV1; Log10 Concentration −4.0
  Percent Growth: −58%
IGROV1; Log10 Concentration −5.0
  Percent Growth: 33%
IGROV1; Log10 Concentration −6.0
  Percent Growth: 101%
IGROV1; Log10 Concentration −7.0
  Percent Growth: 106%
IGROV1; Log10 Concentration −8.0
  Percent Growth: 105%
NCI/ADR-RES
  GI50: 31.2 µM
  TGI: >100 µM
NCI/ADR-RES; Log10 Concentration −4.0
  Percent Growth: 4%
NCI/ADR-RES; Log10 Concentration −5.0
  Percent Growth: 95%
NCI/ADR-RES; Log10 Concentration −6.0
  Percent Growth: 103%
NCI/ADR-RES; Log10 Concentration −7.0
  Percent Growth: 107%
NCI/ADR-RES; Log10 Concentration −8.0
  Percent Growth: 103%
